# From patent publication US11498896B2 (The Broad Institute, Inc., priority 2014, dated 2022)
# Like-named read-outs stand apart in the source and are kept apart here.
# Experiments:
# [1] = Pharmacokinetic and brain distribution study in mice; assay type: in vivo; details: single intraperitoneal dose 30 mg/kg, male C57BL/6 mice
# Procedure: Pharmacokinetic Studies on Mice Brains
# Twelve male C57BL/6 mice were weighed and administered intraperitoneally with a dose of test compound (Examples 90, 157, 125) solution formulation. The dosing volume administered for the intraperitoneal route was at 10 mL/kg. Blood samples (approximately […]) were collected from retro-orbital plexus of each mouse under light isoflurane anesthesia at 0.08, 0.5, 1, 2, 4, and 8 hr. Following the collection of blood, plasma was also harvested by centrifugation and stored at −70° C. until analysis. After collection of plasma, the animals were euthanized and brain samples were isolated at 0.08, 0.5, 1, 2, 4, and 8 hr. Tissue samples (brain) were homogenized using ice-cold phosphate buffer saline (pH 7.4) and homogenates were stored below −70° C. until analysis. Total homogenate volume was three times the tissue weight. Concentrations of test compound in mouse plasma and brain samples were determined by LC-MS/MS method.
# Identical extraction procedures were used for the plasma/brain homogenate study samples and the spiked plasma calibration standards: A 25 μL sample of either study sample (plasma/brain) or spiked calibration standard was added to individual pre-labeled micro-centrifuge tubes. A volume of 100 μL of IS (antipyrine, 500 ng/mL) prepared in acetonitrile was then added to the micro-centrifuge tubes, except in a sample used as a negative control where only acetonitrile was added and vortexed for 5 minutes. Samples were centrifuged for 20 minutes at the speed of 4000 rpm at 4° C. Following centrifugation, 100 μL of the supernatant was sampled from each centrifuge tube and transferred into insert vials. These vials remained within the auto-sampler for the LC/MS/MS analysis. Standards used for calibration were prepared by spiking 10 μL of the test compound in 190 μL of control (used as a negative control) mouse plasma/brain homogenate.
# The plasma and brain concentration-time data of test compounds was provided for data analysis. The plasma and brain concentration-time data was then used for the pharmacokinetic analysis. Non-Compartmental-Analysis module in Phoenix® WinNonlin® (Version 6.3) was used to assess the pharmacokinetic parameters. Peak plasma concentrations (Cmax) and time for the peak plasma concentrations (Tmax) were the observed values. The areas under the concentration time curve (AUClast and AUCinf) were calculated by linear trapezoidal rule. The terminal elimination rate constant, ke was determined by regression analysis of the linear terminal portion of the log plasma concentration-time curve.
# Illustrative results are presented in FIG. 2, the pharmacokinetic parameters are as follow: […]
# human D2R/β-arrestin = human D2R/β-arrestin (Homo sapiens (Human), UniProt P14416); assay: β-arrestin agonist assay (PathHunter); assay type: cell-based; details: CHO-K1 cells expressing human D2R/β-arrestin; agonist mode
# Procedure: The detection reagent (9.6 μL, Buffer:Emerald II:Galactor-Star in a 19:5:1 ratio, i.e., 14.06 mL:3.7 mL:0.74 mL=18.5 mL) was then added to the agonist plates.
# human D2R/β-arrestin, sequence (P14416 whole entry): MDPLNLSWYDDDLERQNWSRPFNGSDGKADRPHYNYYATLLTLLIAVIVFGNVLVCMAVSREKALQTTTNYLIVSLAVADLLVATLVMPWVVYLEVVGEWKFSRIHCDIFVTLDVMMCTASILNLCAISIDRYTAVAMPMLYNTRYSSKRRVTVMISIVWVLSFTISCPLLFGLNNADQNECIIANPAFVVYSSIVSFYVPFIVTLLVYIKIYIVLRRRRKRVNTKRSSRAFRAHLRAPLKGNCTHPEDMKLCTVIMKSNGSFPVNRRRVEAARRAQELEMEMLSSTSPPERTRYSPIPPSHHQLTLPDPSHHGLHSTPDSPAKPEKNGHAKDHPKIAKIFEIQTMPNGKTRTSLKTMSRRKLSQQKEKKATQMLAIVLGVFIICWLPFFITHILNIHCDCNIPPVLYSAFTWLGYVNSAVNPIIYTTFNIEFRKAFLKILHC
smiles,measurement,setting,value
"CC1(Oc2ccc(Cl)cc2)CCN(CCOc2ccccc2C(F)(F)F)CC1 [Compound 90, 4-(4-Chlorophenoxy)-4-methyl-1-(2-(2-(trifluoromethyl)phenoxy)ethyl) piperidine]",Brain AUC,[1]; brain,34.2 µM·h
same,Brain Cmax,[1]; brain,7230 nM
same,half-life,"[1]; mouse, ip, brain, read-out: Brain T1/2 (converted)",4.2 h
same,AUC,"[1]; mouse, ip, plasma",4.4 µM·h
same,Cmax,"[1]; mouse, ip, plasma",1440 nM
same,half-life,"[1]; mouse, ip, plasma, read-out: Plasma T1/2 (converted)",4.7 h
same,EC50,human D2R/β-arrestin,1 to 10 µM
